Data on two compounds can be found in patent US20090233993A1, “COMPOSITIONS AND METHODS FOR INHIBITING GSK3 ACTIVITY AND USES THEREOF” (Burnham Institute for Medical Research, priority 2008, published 2009).

One data set deals with PKA. Kind of data set: PKA inhibitor H89 treatment of FG01-transfected N2aSwe cells. The note with it: H89 2 μM, 4 hrs, FG01-transfected N2a/Swe cells. Format: cell-based, mouse. As to the method: After 48 hr incubation, cell media were changed to Opti-MEM (Invitrogen) containing DMSO or a PKA activity inhibitor H89 (2 μM) and cells were incubated for additional 4 hrs. The cell media were used for Aβ immunoprecipitation-Western blotting and cell lysates were subjected to Western blotting for p-CREB (substrate for PKA) and p-GSK3β. As shown, inhibiting PKA activity with H89 prevented serine phosphorylation of CREB and GSK3β by FG01.
N2aSwe cells were transfected with control vector or FG01 and then equally split. Four hours before collection, cells were treated with the GSK-3 inhibitor lithium chloride (5 mM) or sodium chloride (5 mM, as control). Alternatively, cells were treated with a PKA inhibitor H89 at 10 μM or with DMSO for control.

For another data set, the system named is FG01. Briefly: FG01 RNA interference in N2aSwe cells. In kind it is cell-based, mouse. An excerpt: Cells were collected for mRNA extraction, reverse-transcription, and PCR amplification with FG01 specific primers to study the knockdown efficiency (upper panel), n=3. Alternatively, cells were lysed and cell lysates subjected to Western blotting for p-CREB, CREB, p-GSK3β, and GSK3β. Aβ in conditioned media was subjected to immunoprecipitation-Western blotting (lower panels). As shown, knockdown of FG01 coincided with a concomitant decrease in GSK3β phosphorylation (inactivation). **: p<0.01. […] Moreover, as PKA is a cAMP-dependent protein kinase, FG01 is likely having this effect through adenylyl cyclase (AC) activation of cAMP.
The mouse FG01 siRNA used was: 5′-[…]-3′ (SEQ ID NO:20). The control siRNA was from Invitrogen. siRNA was transfected into N2a cells using Lipofectamine RNAiMAX reagent (Invitrogen), following the manufacturer's protocol. After FG01 RNA interference, total RNA was extracted from N2a cells by Trizol reagent (Invitrogen). After reverse transcription into first strand cDNA using standard conditions, samples were analyzed independently by real-time PCR using an iCycler iQ with SYBR green supermix (Bio-Rad). The FG01 primer pair used for amplification was: 5′: […] (SEQ ID NO:21) and 3′: […] (SEQ ID NO:22). A pair of β-actin primers served as controls (Zhang et al., 2007).

The mark [1] stands for this setting: downregulation of endogenous FG01 in N2aSwe cells.

Consider `O=S(=O)(NCCNC/C=C/c1ccc(Br)cc1)c1cccc2cnccc12` [H89, reference compound], for which, in the data set on PKA, the “serine phosphorylation of CREB by FG01” value is “prevented” and the “serine phosphorylation of GSK3β by FG01” value is on record as “prevented”.

Turning to “FG01 siRNA: mouse FG01 siRNA 5′-UACUGUUUGUCAUGCCACUUCUGAU-3′ (SEQ ID NO:20) (listed as RNA, chemistry not given here)”, in the data set with FG01 (setting [1]), the Aβ generation result is “increased”, the CREB phosphorylation entry is on record as “dramatically reduced” and the GSK-3 activity entry is on record as “increased”. In the data set with FG01 (knockdown of FG01 in N2a/Swe cells vs scramble siRNA), the “GSK3β phosphorylation (inactivation)” value is recorded as “decrease”.
